{"source": "paper PMC9115111", "about": "“Metalloprotease Gp63-Targeting Novel Glycoside Exhibits Potential Antileishmanial Activity” (Frontiers in Cellular and Infection Microbiology, 2022)", "key": {"[1]": {"system": "L. donovani promastigotes (AG83 strain)", "experiment": "LDH cytotoxicity assay on promastigotes, AG83 strain", "assay_type": "cell-based, Leishmania donovani", "description": "Promastigote forms of L. donovani (MHOM/IN/1983/AG83) were cultured at 26°C in M199 (GIBCO, India), pH 7.4, supplemented with 10% (v/v) inactivated fetal bovine serum (FBS, GIBCO, India) and 0.02 mg/ml gentamycin (Life Technologies, USA). The clinical isolate of PKDL, BS12, was obtained as a gift from Prof. Mitali Chatterjee [Department of Pharmacology, Institute of Postgraduate Medical Education and Research (IPGMER), Kolkata, India]. BS12 was routinely cultured at 22°C in M199 (GIBCO, India) with 100 U/ml penicillin-streptomycin (Gibco, Invitrogen, Thermo Fisher Scientific, NY, USA), 8 μM hemin (4 mM stock made in 50% triethanolamine) (Sigma, USA), 25 mM 4-(2-hydroxyethyl)-1-piperazineethanesulfonic acid (HEPES), supplemented with 10% heat-inactivated FBS (GIBCO, India). Cultures were maintained between 10^6 and 10^7 cells/ml for continuous exponential growth. In addition, 1 × 10^6 cells/ml parasite count was constantly maintained for all the experiments ([Ramu et al., 2017]).\n(§1) All the compounds were dissolved in dimethyl sulfoxide (DMSO) (Sigma-Aldrich) for 1 mM stock solution and were screened against promastigotes at a concentration of 5 µM. For Glycosides (Gly) 2, 6, and 8, a range of concentrations starting from 100 nM to 100 µM were screened against promastigote forms of parasite and mammalian cells. Parasites (AG83 and PKDL strain) treated with amphotericin B (3 µg/ml) (Sigma-Aldrich) were maintained as the positive control.\nAG83 strain of L. donovani were exposed to various Gly compound concentrations (100 nM–100 µM) in a 96-well microtiter plate (100 µl/well volume) and were incubated for 72 h at 26°C. Finally, lactate dehydrogenase (LDH) cytotoxic assay was performed as per standard protocol (CytoTox 96 Non-Radioactive Cytotoxicity Assay-Promega, USA). The percent cytotoxicity of test compounds was calculated by normalizing with amphotericin B as 100%. Further percentage growth inhibition was calculated using the formula:\n% Growth Inhibition = Gly treated LDH activity- Spontaneous LDH activity\n/Maximum LDH activity- Spontaneous LDH activity * 100\nAs per the formula, the spontaneous LDH Activity = activity of the untreated cells and the maximum LDH activity = activity of the amphotericin B-treated cells. IC50 value for Gly2, 6, and 8 treated was generated for AG83 and PKDL strain of L. donovani using sigmoidal dose–response model with nonlinear regression tool ([Ramu et al., 2017])."}, "[2]": {"system": "J774.A1 murine macrophage cells", "experiment": "MTT cell viability assay on macrophages", "assay_type": "cell-based", "description": "(§2) The J774.A1 murine macrophage cells were grown in Roswell Park Memorial Institute (RPMI) 1640 medium in the presence of 10% (v/v) FBS and 100 U/ml penicillin−100 µg/ml streptomycin (Gibco, Invitrogen, Thermo Fisher Scientific, NY, USA) at 37°C (humidified) and 5% CO2. […] Madin–Darby canine kidney (MDCK) cells were obtained from the National Centre for Cell Science, Pune, India. MDCK cells were derived from the kidney tissue of an adult female Cocker Spaniel. These were grown in Dulbecco’s modified Eagle’s minimal essential medium (DMEM) in the presence of 10% (v/v) FBS and 100 U/ml penicillin−100 µg/ml streptomycin (Gibco, Invitrogen, Thermo Fisher Scientific, NY, USA) at 37°C (humidified) and 5% CO2 ([Ayana et al., 2018]; [Shivappagowdar et al., 2021]).\nas §1\n(§3) To evaluate the cytotoxic effects of 12 compounds on L. donovani promastigotes, LDH assay was performed. This assay involves the reduction of tetrazolium salts to formazan during LDH-mediated catalysis of lactate to pyruvate, which can be detected at […]. Rate of formazan formation is proportional to the release of LDH through damaged cell membranes. For the preliminary screening, the promastigotes were incubated with 12 compounds at a single concentration of 5 µM for a period of 72 h, and the released LDH was estimated ( Supplementary Figure S1A ). Amphotericin B-treated promastigotes were taken as the positive control. […] Having observed the antileishmanial effect of Gly2 on growth and proliferation of promastigotes, we next investigated the cytotoxicity of Gly2 on mammalian cells (MDCK, J774.1A) through MTT (3-(4, 5-dimethylthiazolyl-2)-2, 5-diphenyltetrazolium bromide) cell viability assay ( Supplementary Figures S1B, C ). […] The CC50 values of Gly2 analog was in the micromolar range. The selectivity index (SI) for the compound was calculated as the ratio between cytotoxicity (CC50) and activity (IC50) against promastigotes ( Table 1 )."}, "[3]": {"experiment": "MTT cell viability assay on macrophages", "assay_type": "cell-based, murine", "details": "mouse, J774.A1 macrophage cells; Table 1; macrophages", "description": "as §2, §1, §3"}, "[4]": {"system": "L. donovani promastigotes", "experiment": "Hoechst/PI live/dead dual staining of promastigotes", "assay_type": "cell-based, Leishmania donovani", "details": "5 µM, 72 h", "description": "The toxic effect of the three compounds, Gly2, 6, and 8 on promastigotes at 5 µM >IC50 concentration was measured by Hoechst and propidium iodide (PI) double staining. […], parasites were harvested, washed in 0.01 M PBS (pH = 7.4), and stained with Hoechst 33258 (1 µg/ml) (Life Technologies, USA) and PI (5 µg/ml) (Life Technologies, USA) followed by incubation for a period of 20 min at 37°C. Subsequently, cells were washed for excessive stain removal and visualized using fluorescence microscope with 510–560-nm filter block for PI red fluorescence and excitation/emission spectra at 361/497 for Hoechst ([López-Arencibia et al., 2015])."}, "[5]": {"system": "L. donovani intracellular amastigotes in J774.A1 macrophages", "experiment": "Intramacrophage amastigote assay (Giemsa staining, J774.A1)", "assay_type": "cell-based, Leishmania donovani", "details": "treated at IC50 concentration, 24 h; untreated control ~5", "description": "For evaluating the efficacy of compounds against intramacrophage amastigotes, Giemsa staining (Sigma-Aldrich) was performed. J774.A1 murine macrophage cells were plated at a cell density of 5 × 10^5 cell/well in a 6-well flat bottom plate. The cells were infected with late-stage L. donovani, rich in promastigotes at a ratio of 10:1. After 6 h, uninfected promastigotes were washed off with PBS."}, "[6]": {"details": "Table 1, activity against promastigotes"}, "[7]": {"details": "Leishmania donovani, AG83 promastigotes, LDH assay 72 h, sigmoidal curve, normalised to amphotericin B 3 µg/ml as 100%"}, "[8]": {"details": "Leishmania donovani, Table 1, activity against promastigotes"}}}
{"smiles": "CC(=O)N[C@H]1[C@@H](OCCC(C)C)O[C@H](COC(C)=O)[C@@H](OC(C)=O)[C@@H]1OC(C)=O", "note": "[Gly11]", "values": [{"measurement": "IC50", "setting": "[1]; [6]", "value": 43, "unit": "µM"}, {"measurement": "CC50", "setting": "[2]", "value": 179, "unit": "µM"}]}
{"smiles": "CCCCCCOC1O[C@H](COC(C)=O)[C@@H](OC(C)=O)[C@H](OC(C)=O)[C@H]1OC(C)=O", "note": "(stereo partly shown) [Gly5]", "values": [{"measurement": "IC50", "setting": "[1]; [6]", "value": 5.97, "unit": "µM"}, {"measurement": "CC50", "setting": "[2]", "value": 159, "unit": "µM"}]}
{"smiles": "CCOC1O[C@H](COC(C)=O)[C@@H](OC(C)=O)[C@H](OC(C)=O)[C@H]1OC(C)=O", "note": "(stereo partly shown) [Gly7]", "values": [{"measurement": "IC50", "setting": "[1]; [6]", "value": 77, "unit": "µM"}, {"measurement": "CC50", "setting": "[2]", "value": 299, "unit": "µM"}]}
{"smiles": "CCCCCCOC1O[C@H](CO)[C@@H](O)[C@H](O)[C@H]1O", "note": "(stereo partly shown) [Gly3]", "values": [{"measurement": "IC50", "setting": "[1]; [6]", "value": 12.7, "unit": "µM"}, {"measurement": "CC50", "setting": "[2]", "value": 1680, "unit": "µM"}]}
{"smiles": "CC(=O)OC[C@H]1OC(OC(C)C)[C@H](OC(C)=O)[C@@H](OC(C)=O)[C@@H]1OC(C)=O", "note": "(stereo partly shown) [Gly9]", "values": [{"measurement": "IC50", "setting": "[1]; [6]", "value": 36, "unit": "µM"}, {"measurement": "CC50", "setting": "[2]", "value": 256, "unit": "µM"}]}
{"smiles": "CCCCOC1O[C@H](COC(C)=O)[C@@H](OC(C)=O)[C@H](OC(C)=O)[C@H]1OC(C)=O", "note": "(stereo partly shown) [Gly4]", "values": [{"measurement": "IC50", "setting": "[1]; [6]", "value": 4.6, "unit": "µM"}, {"measurement": "CC50", "setting": "[2]", "value": 167, "unit": "µM"}]}
{"smiles": "CCCOC1O[C@H](COC(C)=O)[C@@H](OC(C)=O)[C@H](OC(C)=O)[C@H]1OC(C)=O", "note": "(stereo partly drawn) [Gly8, (2R,3R,4S,5R)-2-(acetoxymethyl)-6-propoxytetrahydro-2H-pyran-3,4,5-triyl triacetate]", "values": [{"measurement": "IC50", "setting": "[1]; [7]", "value": 1.61, "unit": "µM"}, {"measurement": "IC50", "setting": "[1]; [8]", "value": 1.6, "unit": "µM"}, {"measurement": "CC50", "setting": "[3]", "value": 959, "unit": "µM"}, {"measurement": "dead parasites (PI positive)", "setting": "[4]", "value": 75.47, "unit": "%"}, {"measurement": "number of amastigotes per infected macrophage", "setting": "[5]", "value": "~2", "unit": "amastigotes/macrophages"}]}
{"smiles": "CCCOC1O[C@H](COC(C)=O)[C@@H](OC(C)=O)[C@H](OC(C)=O)[C@H]1NC(C)=O", "note": "(stereo partly shown) [Gly10]", "values": [{"measurement": "IC50", "setting": "[1]; [6]", "value": 25.2, "unit": "µM"}, {"measurement": "CC50", "setting": "[2]", "value": 239, "unit": "µM"}]}
{"smiles": "CCOC1O[C@H](CO)[C@@H](O)[C@H](O)[C@H]1NC(C)=O", "note": "(stereo partly drawn) [Gly1, ethyl glycoside N-Acetyl-D-glucosamine]", "values": [{"measurement": "IC50", "setting": "[1]; [6]", "value": 65, "unit": "µM"}, {"measurement": "CC50", "setting": "[2]", "value": 248, "unit": "µM"}]}
{"smiles": "CCCCO[C@H]1O[C@H](COC(C)=O)[C@@H](OC(C)=O)[C@H](OC(C)=O)[C@H]1NC(C)=O", "note": "[Gly12]", "values": [{"measurement": "IC50", "setting": "[1]; [6]", "value": 95, "unit": "µM"}, {"measurement": "CC50", "setting": "[2]", "value": 279, "unit": "µM"}]}
{"smiles": "CC(=O)OC[C@H]1OC(OCCC(C)C)[C@H](OC(C)=O)[C@@H](OC(C)=O)[C@@H]1OC(C)=O", "note": "(stereo partly shown) [Gly6]", "values": [{"measurement": "IC50", "setting": "[1]; [7]", "value": 2.94, "unit": "µM"}, {"measurement": "IC50", "setting": "[1]; [8]", "value": 3.4, "unit": "µM"}, {"measurement": "CC50", "setting": "[3]", "value": 1030, "unit": "µM"}, {"measurement": "dead parasites (PI positive)", "setting": "[4]", "value": "~ 33.72%"}, {"measurement": "number of amastigotes per infected macrophage", "setting": "[5]", "value": "~ 3 amastigotes/macrophages"}]}
